# pIC50: −log10 of the molar value.
# Biological target: T1, Calmodulin-sensitive adenylate cyclase (Bacillus anthracis, UniProt P40136)
# T1 sequence (P40136 whole entry): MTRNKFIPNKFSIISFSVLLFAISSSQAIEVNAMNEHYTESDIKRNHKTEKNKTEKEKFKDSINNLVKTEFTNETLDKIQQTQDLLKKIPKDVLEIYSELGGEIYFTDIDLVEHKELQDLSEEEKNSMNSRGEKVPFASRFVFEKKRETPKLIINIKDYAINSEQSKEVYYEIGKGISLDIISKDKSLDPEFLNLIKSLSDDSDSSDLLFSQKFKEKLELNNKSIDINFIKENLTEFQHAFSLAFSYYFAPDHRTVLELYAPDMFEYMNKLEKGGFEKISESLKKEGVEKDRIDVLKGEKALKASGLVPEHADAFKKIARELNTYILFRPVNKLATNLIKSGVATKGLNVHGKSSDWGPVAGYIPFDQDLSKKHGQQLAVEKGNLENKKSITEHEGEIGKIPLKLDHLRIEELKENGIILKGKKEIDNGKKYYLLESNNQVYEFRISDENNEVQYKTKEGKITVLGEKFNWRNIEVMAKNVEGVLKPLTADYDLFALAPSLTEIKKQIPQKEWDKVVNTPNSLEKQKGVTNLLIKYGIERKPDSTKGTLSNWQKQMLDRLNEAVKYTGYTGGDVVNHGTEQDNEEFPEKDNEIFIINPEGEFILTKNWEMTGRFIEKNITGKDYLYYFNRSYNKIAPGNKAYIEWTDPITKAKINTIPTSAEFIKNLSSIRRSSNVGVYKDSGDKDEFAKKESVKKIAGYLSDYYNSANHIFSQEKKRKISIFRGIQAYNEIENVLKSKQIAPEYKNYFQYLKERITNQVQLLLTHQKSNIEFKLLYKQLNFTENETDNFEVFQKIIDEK
# Assay: Inhibition of Bacillus anthracis edema factor-induced edema in RAW264.7 mouse macrophages by cAMP-specific ELISA
# Assay type: cell-based
row,Compound,pIC50
1,O=C1C=C(c2ccc3ncccc3c2)CCC1,< 4.00
2,O=C1C=C(c2cccs2)CCC1,< 4.00
3,Cn1cc(C2=CC(=O)CCC2)cn1,< 4.00
4,O=C1C=C(c2cccnc2)CCC1,< 4.00
5,O=C1C=C(c2ccsc2)CCC1,< 4.00
6,COc1cccc(C2=CC(=O)CCC2)n1,< 4.00
7,O=C1C=C(c2ccoc2)CCC1,< 4.00
8,O=C1C=C(c2cccc3c2oc2ccccc23)CCC1,< 4.00
9,O=C1C=C(c2cccc(O)c2)CCC1,< 4.00
10,O=C1C=C(c2ccccc2)CCC1,< 4.00
11,CC1(C)CC(=O)C=C(c2ccc3[nH]ccc3c2)C1,< 4.00
12,O=C1C=C(c2nccs2)CCC1,< 4.00
13,CC1(C)CC(=O)C=C(c2cccc3c2oc2ccccc23)C1,< 4.00

# — ChEMBL document CHEMBL1157493, “Synthesis and screening of small molecule inhibitors of anthrax edema factor” (Bioorg Med Chem Lett, 2008)
